The test system of one assay is MDA-MB-231 cells. As to the kind of experiment: Resazurin-based cytotoxicity assay in MDA-MB-231 cells. It counts as cell-based, human. Conditions: for IC50: Homo sapiens. The text has this: (§1) To investigate the impact of ring-opening, we first submitted the open-chain analogue 1 [9] to the National Cancer Institute (NCI) 60-cell line screening (Supplementary Material S1) and determined the cytotoxicity of nine newly synthesized open-chain analogues 4–12 (Figure 2, Supplementary Materials S2 and S3) against MDA-MB-231 cells (Table S1). […] Furthermore, the majority of the nine new open-chain analogues were modestly less cytotoxic towards MDA-MB-231 cells when compared to their direct ring-closed counterparts (analogues 13–21 matching with 4–12; Figures S1 and S2 and Table S1).
The human breast cancer cell line (MDA-MB-231) was maintained in a DMEM high glucose culture medium supplemented with 10% (v/v) fetal bovine serum (FBS) and 2 mM L-glutamine. Parental (Sec61α-WT) HCT-116 (human colorectal cancer cells, ATCC, CCL-247) and mutant (Sec61α-G80W) HCT-116 cells were maintained in McCoy’s 5A (modified) medium ((ThermoFisher, Waltham, MA, USA, 16600-082)) supplemented with 10% (v/v) FBS (Gibco, 10500-064) and 100 units/mL penicillin and […] streptomycin (Gibco, cat: 15140-122). All cell lines were maintained in a 5% CO2 humidified incubator at 37 °C. Cytotoxicity assays were performed in triplicate sets as previously described and viable cells were counted using an automated cell counter (Bio-Rad TC20) immediately before each experiment. Compound stock solutions in DMSO (10 mM) were diluted with supplemented culture media (MDA-MB-231 cells: high glucose DMEM; HCT116 Sec61α-WT and Sec61α-G80W cells: McCoy’s (modified) 5A) to make a series of gradient fresh working solutions at equal DMSO percentage immediately prior to each test. First, […] of cells at a cell density of […] (MDA-MB-231 cells) or 2.5 × 10^4 cells/mL (Sec61α-WT or Sec61α-G80W HCT-116 cells) were seeded in black 96-well microtiter plates (Falcon, product 353219; 2500 cells/well) and incubated at 37° C for 24 h. Subsequently, the cells were treated with either […] of the freshly made gradient working solution in a total volume of […]/well (MDA-MB-231 cells) or 25 mL of freshly made gradient in a total volume of […]/well (Sec61α-WT or Sec61α-G80W HCT-116 cells) at 37 °C for 72 h. For MDA-MB-231 cells, the media were discarded and […] fresh medium containing 10% (v/v) alamarBlue HS cell viability reagent (resazurin stock solution) (ThermoFisher, Waltham, MA, USA, A50100) was added to each well. For Sec61α-WT or Sec61α-G80W HCT-116 cells, the media was not discarded and alamarBlue HS cell viability reagent (resazurin stock solution) (ThermoFisher, Waltham, MA, USA, A50100) was added to 10% (v/v). After that, all cells were incubated at 37 °C for a further 1–3 h and the emission of each well at 620 nm was detected using a Synergy H1 Hybrid multi-mode plate reader (BioTek, Agilent Technologies, Palo Alto, CA, USA) at excitation 580 nm. […] IC50 value estimates were determined using nonlinear regression to fit data to a curve of variable slope (four parameters) using the least-squares fitting method. For HCT-116 cell IC50 curves, the top and bottom plateaus were defined as 100% and 23.70% (the mean of all data at 25 µM across all compounds), respectively.
(The colour change of resazurin is a common sign of viable cells or microbes.)

Assay [1] has as its target T1, Sec61-mediated protein translocation (membrane integration of Ii) (Canis lupus familiaris, UniProt P38377).
T1 construct: cell-free translation system supplemented with ER microsomes derived from canine pancreas; from tissue; host or cells: canine pancreas ER microsomes (nuclease-treated); the Ii substrate was translated in vitro from T7-transcribed RNA
Kind of assay: In vitro membrane insertion assay of Ii with ER microsomes. The format is biochemical, canine. To be noted: for inhibition of in vitro membrane integration of Ii / reduction in Ii membrane integration: 1 µM compound; for inhibition of in vitro membrane integration of Ii: versus DMSO control. The text has this:
Having previously established that the principal molecular basis for the cytotoxicity of Ipom-F is its strong, yet reversible, binding to Sec61α and the resultant wide-ranging blockade of Sec61-mediated protein translocation at the ER [13], we sought evidence that this mechanism also underlies the cytotoxic effects of 1 and other open-chain analogues. […] For comparative purposes, we analyzed the effects of 2 [13] and two closed-chain compounds: Ipom-F and the diester-modified analogue 22 [11] in parallel (Figure 3A).
Following the resolution of radiolabeled proteins by SDS-PAGE (Figure 3B), we used the efficiency with which the N-terminal domain of the type II integral membrane protein Ii (short form of HLA class II histocompatibility antigen gamma chain, isoform 1) was N-glycosylated inside the ER lumen as a robust reporter for the authentic membrane integration of this model Sec61-dependent protein client (Figure 3B, right upper panel, 0Gly versus 2 Gly forms).
Linear DNA of the short form of human HLA class II histocompatibility antigen gamma chain (Ii; P04232, […], residues 17–232) or human glycophorin C (GypC; P04921) were generated by PCR and transcribed into RNA using T7 RNA polymerase (Promega). Membrane insertion assays (20 µL, 1 h at 30 °C, containing 6.5% (v/v) nuclease-treated ER microsomes (from stock with OD280 = 44/mL)), endoglycosidase Hf (New England Biolabs) treatment, sample resolution by SDS-PAGE (16% polyacrylamide gels) and gel drying were performed as previously described. Following exposure to a phosphorimaging plate for 24–72 h, radiolabeled products were visualized using a Typhoon FLA-7000 (GE Healthcare, Tokyo, Japan) and the ratio of the signal intensity for the N-glycosylated (XGly) and non-glycosylated (0Gly) forms obtained using AIDA v.5.0 (Raytest Isotopenmeβgeräte). This value was then expressed relative to the matched DMSO control (set to 100%) in order to estimate the mean relative insertion (± SEM) from insertion experiments performed in triplicate (n = 3, biologically independent experiments). IC50 value estimates were determined in Prism 8 (GraphPad, San Diego, CA, USA) using nonlinear regression to fit data to a curve of variable slope (four parameters) using the least-squares fitting method, with the top and bottom plateaus of the curve defined as 100% and 7.67% (the mean of all data at 500 µM across all compounds), respectively.

The next assay concerns HCT116 Sec61α-WT cells. As to the kind of experiment: Resazurin-based cell viability assay in HCT116 Sec61α-WT cells. Also noted: species or system human. Conditions: for cell death: 50 nM, 72 h; for IC50: Homo sapiens. As for the experimental part:
Parental (Sec61α-WT) […] All cell lines were maintained in a 5% CO2 humidified incubator at 37 °C. Cytotoxicity assays were performed in triplicate sets as previously described and viable cells were counted using an automated cell counter (Bio-Rad TC20) immediately before each experiment. Compound stock solutions in DMSO (10 mM) were diluted with supplemented culture media (MDA-MB-231 cells: high glucose DMEM; HCT116 Sec61α-WT and Sec61α-G80W cells: McCoy’s (modified) 5A) to make a series of gradient fresh working solutions at equal DMSO percentage immediately prior to each test. […] For MDA-MB-231 cells, the media were discarded and […] fresh medium containing 10% (v/v) alamarBlue HS cell viability reagent (resazurin stock solution) (ThermoFisher, Waltham, MA, USA, A50100) was added to each well. For Sec61α-WT or Sec61α-G80W HCT-116 cells, the media was not discarded and alamarBlue HS cell viability reagent (resazurin stock solution) (ThermoFisher, Waltham, MA, USA, A50100) was added to 10% (v/v). After that, all cells were incubated at 37 °C for a further 1–3 h and the emission of each well at 620 nm was detected using a Synergy H1 Hybrid multi-mode plate reader (BioTek, Agilent Technologies, Palo Alto, CA, USA) at excitation 580 nm. […] IC50 value estimates were determined using nonlinear regression to fit data to a curve of variable slope (four parameters) using the least-squares fitting method.

Another assay deals with NCI 60-cell line. As to the kind of experiment: NCI 60-cell line screening. It counts as cell-based, human. To be noted: for GI50: Homo sapiens, read-out: average GI50.
Source text: as §1

Where [2] appears, read: MDA-MB-231, 72 h, MDA-MB-231 cells, 72 h, read-out: IC50 (cytotoxicity).
Setting [3] is: MDA-MB-231, MDA-MB-231 cells, at least three independent experiments, read-out: IC50 ± SD, ring-open.
Setting [4] is: Table 1, Ii membrane integration, read-out: In Vitro Translocation Inhibition (IC50).
[5] abbreviates: HCT-116, Table 1, HCT116 Sec61α-WT cells, read-out: Cytotoxicity HCT-116 Cells (IC50).

Structures are written as SMILES. Entries after “also recorded” stand apart in the source; their conditions may differ. Where two headings read alike, the source gives them in different places.

T1 sequence (P60058 whole entry): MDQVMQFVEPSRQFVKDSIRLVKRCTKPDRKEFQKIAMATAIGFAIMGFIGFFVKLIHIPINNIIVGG
T1 sequence (P38377 2-476): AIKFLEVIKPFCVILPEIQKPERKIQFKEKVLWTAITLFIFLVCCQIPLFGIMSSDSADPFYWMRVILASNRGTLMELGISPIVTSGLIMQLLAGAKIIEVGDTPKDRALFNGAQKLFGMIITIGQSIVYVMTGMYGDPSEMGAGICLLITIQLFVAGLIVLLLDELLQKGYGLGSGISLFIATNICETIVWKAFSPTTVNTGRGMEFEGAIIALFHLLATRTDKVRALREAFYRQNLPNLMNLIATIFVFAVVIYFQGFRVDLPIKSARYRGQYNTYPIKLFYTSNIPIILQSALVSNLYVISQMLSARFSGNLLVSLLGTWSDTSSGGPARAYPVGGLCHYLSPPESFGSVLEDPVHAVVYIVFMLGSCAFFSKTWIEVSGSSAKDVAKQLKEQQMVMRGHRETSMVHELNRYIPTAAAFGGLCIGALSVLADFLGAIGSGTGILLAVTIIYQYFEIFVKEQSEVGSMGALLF
T1 sequence (P60467 2-96, further chain): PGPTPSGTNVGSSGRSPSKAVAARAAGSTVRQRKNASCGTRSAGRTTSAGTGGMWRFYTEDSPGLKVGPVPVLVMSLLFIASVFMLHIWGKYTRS

The IC50 is the concentration that inhibits the measured activity by half. One may read the GI50 as the concentration at which growth is held to half of that of the control. In the case of `C=CCCCC(=O)CCC(=O)OC[C@H]1O[C@@H](O[C@H]2[C@H](O[C@H](CC=C)CCCCC)O[C@H](C)[C@H](OC(C)=O)[C@@H]2O)[C@H](O)[C@@H](OC(=O)/C(C)=C/C)[C@@H]1OC(=O)/C=C/c1ccccc1` [analogue 1], the IC50 in the assay with MDA-MB-231 cells (setting [2]) was about 60 nM; in the assay on MDA-MB-231 cells (setting [3]) it was 59 ± 8.1 nM; in assay [1] (setting [4]) it was 562 nM; with HCT116 Sec61α-WT cells (setting [5]) it was 170 nM. The “loss in potency when compared to Ipom-F” value is recorded as 9 fold in the assay on MDA-MB-231 cells (MDA-MB-231 cells IC50) and 4–5 fold in the assay with NCI 60-cell line (NCI 60-cell line average GI50). For the same compound, the “inhibition of in vitro membrane integration of Ii” value (“inhibition” below) in assay [1] is “efficiently, albeit variably, inhibited”. In the assay on HCT116 Sec61α-WT cells (HCT116 Sec61α-WT cells), the cell death was 48–64%. Also, the GI50 in the assay with NCI 60-cell line (NCI 60-cell line screening, average over cell lines) was about 135 nM.
As for `C=CCCCCCCC(=O)OCC1OC(OC2C(OC(CC=C)CCCCC)OC(C)C(OC(C)=O)C2O)C(O)C(OC(=O)C(C)=CC)C1OC(=O)C=Cc1ccccc1` (centres unmarked) [analogue 6], the IC50 in the assay on MDA-MB-231 cells (setting [2]) was about 205 nM; in the assay with MDA-MB-231 cells (setting [3]), 205 ± 11 nM. In addition, the “loss in activity when compared to 1” value in the assay on MDA-MB-231 cells (MDA-MB-231 cells IC50) is given as 3–4 fold. Moreover, the “inhibition” value in assay [1] is given as “did not; also recorded: negligible inhibition”. For the same compound, the cell death in the assay on HCT116 Sec61α-WT cells (HCT116 Sec61α-WT cells) was ~ 20%.
In the case of `C/C=C(\C)C(=O)O[C@@H]1[C@@H](O)[C@@H]2O[C@H]3[C@H](O[C@@H](CCCCC)CCCCCOC(=O)CCC(=O)OC[C@@H](O2)[C@H]1OC(=O)/C=C/c1ccccc1)O[C@H](C)[C@H](OC(C)=O)[C@@H]3O` [analogue 22], the “inhibition” value in assay [1] was “efficiently, albeit variably, inhibited”. Also, the IC50 is 334 nM in assay [1] (setting [4]) and 70 nM with HCT116 Sec61α-WT cells (setting [5]). Also, the cell death in the assay with HCT116 Sec61α-WT cells (HCT116 Sec61α-WT cells) was 48–64%.
With `C/C=C(\C)C(=O)O[C@@H]1[C@@H](O)[C@@H]2O[C@H]3[C@H](O[C@@H](CCCCC)CCCCCCC(=O)CCC(=O)OC[C@@H](O2)[C@H]1OC(=O)/C=C/c1ccccc1)O[C@H](C)[C@H](OC(C)=O)[C@@H]3O` [Ipom-F, ipomoeassin F], the IC50 is about 7 nM with MDA-MB-231 cells (MDA-MB-231, 72 h, read-out: IC50 (cytotoxicity)); 6.5 ± 0.4 nM with MDA-MB-231 cells (MDA-MB-231, read-out: IC50 ± SD, ring-closed); 155 nM in assay [1]; 18 nM with HCT116 Sec61α-WT cells (HCT-116, read-out: Cytotoxicity HCT-116 Cells (IC50)). Besides, the “reduction in Ii membrane integration” value in assay [1] was 73–86%. For the same compound, the “inhibition” value in assay [1] is recorded as “efficiently, albeit variably, inhibited”. Besides, the cell death in the assay with HCT116 Sec61α-WT cells (HCT116 Sec61α-WT cells) is given as 48–64%. Also, the GI50 in the assay on NCI 60-cell line (60 cell) was about 30 nM.
Regarding `C/C=C(\C)C(=O)O[C@@H]1[C@@H](O)[C@H](O[C@H]2[C@H](O[C@H](CCC)CCCCC)O[C@H](C)[C@H](OC(C)=O)[C@@H]2O)O[C@H](COC(=O)CCC(=O)CCCCC)[C@H]1OC(=O)/C=C/c1ccccc1` [analogue 2], in assay [1], the “reduction in Ii membrane integration” value is 73–86% and the “inhibition” value was “efficiently, albeit variably, inhibited”. In assay [1] (setting [4]), the half-maximal inhibitory concentration (IC50) turned out to be 202 nM. In the assay on HCT116 Sec61α-WT cells (HCT116 Sec61α-WT cells), the cell death is given as 48–64%. In addition, the concentration for half-maximal inhibition (IC50) with HCT116 Sec61α-WT cells (setting [5]) is 41 nM.
As to `C=CCCN(C)C(=O)CCC(=O)OCC1OC(OC2C(OC(CC=C)CCCCC)OC(C)C(OC(C)=O)C2O)C(O)C(OC(=O)C(C)=CC)C1OC(=O)C=Cc1ccccc1` (centres unmarked) [analogue 5], the IC50 is about 43 nM in the assay on MDA-MB-231 cells (setting [2]), 43 ± 11 nM in the assay with MDA-MB-231 cells (setting [3]), 291 nM in assay [1] (setting [4]) and 41 nM in the assay with HCT116 Sec61α-WT cells (setting [5]). In addition, the “reduction in Ii membrane integration” value in assay [1] is given as 73–86%. Also, the “inhibition” value in assay [1] is “efficiently, albeit variably, inhibited”. The cell death with HCT116 Sec61α-WT cells (HCT116 Sec61α-WT cells) is reported as 48–64%.

(Values after publication PMC9320607, “Synthesis, Biological Evaluation and Docking Studies of Ring-Opened Analogues of Ipomoeassin F” (Molecules, 2022).)
